In ChEMBL document CHEMBL4049411, “Rational Design, Synthesis, and Biological Evaluation of Heterocyclic Quinolones Targeting the Respiratory Chain of Mycobacterium tuberculosis” (J Med Chem, 2017):

Legend:
[1] = test system: Mycobacterium tuberculosis; experiment: Growth inhibition of multi-drug resistant Mycobacterium tuberculosis DQ707 harboring katG S315N mutant; type: functional
[2] = test system: Mycobacterium tuberculosis; experiment: Growth inhibition of multi-drug resistant Mycobacterium tuberculosis 05TB42059; type: functional

Q: `Cc1c(-c2ccc(N3CCC(F)(F)C3)cc2)[nH]c2cc(F)cc(F)c2c1=O` was tested. Which IC50 [1] did it give?
A: 548 nM

Q: And the IC50 [2]?
A: 140 nM
